Test results taken from patent US10793538B2, “Cycloalkenyl hydroxamic acid derivatives and their use as histone deacetylase inhibitors” (The Broad Institute, Inc., priority 2012, dated 2020).

Tests used:
Test in all cases: HDAC isoform inhibition, microfluidic lab-on-a-chip (Caliper) assay
[1] = molecular target: T1, HDAC1 (Homo sapiens, UniProt Q13547); format: biochemical; conditions: HDAC isoform 1; 2 μM FAM-labeled acetylated peptide substrate, 60 min, room temperature
T1 construct: purchased BPS Bioscience

[2] = molecular target: T2, HDAC2 (Homo sapiens, UniProt Q92769); format: biochemical; conditions: HDAC isoform 2; 2 μM FAM-labeled acetylated peptide substrate, 60 min, room temperature
T2 construct: purchased BPS Bioscience

[3] = molecular target: T3, HDAC3 (Homo sapiens, UniProt O15379); format: biochemical; conditions: HDAC isoform 3; 2 μM FAM-labeled acetylated peptide substrate, 60 min, room temperature
T3 construct: purchased BPS Bioscience

[4] = molecular target: T4, HDAC5 (Homo sapiens, UniProt Q9UQL6); format: biochemical; conditions: HDAC isoform 5; 2 μM FAM-labeled acetylated peptide substrate, 60 min, room temperature
T4 construct: purchased BPS Bioscience

[5] = molecular target: T5, HDAC6 (Homo sapiens, UniProt Q9UBN7); format: biochemical; conditions: HDAC isoform 6; 2 μM FAM-labeled acetylated peptide substrate, 60 min, room temperature
T5 construct: purchased BPS Bioscience
T5 sequence (Q9UBN7 1-1215): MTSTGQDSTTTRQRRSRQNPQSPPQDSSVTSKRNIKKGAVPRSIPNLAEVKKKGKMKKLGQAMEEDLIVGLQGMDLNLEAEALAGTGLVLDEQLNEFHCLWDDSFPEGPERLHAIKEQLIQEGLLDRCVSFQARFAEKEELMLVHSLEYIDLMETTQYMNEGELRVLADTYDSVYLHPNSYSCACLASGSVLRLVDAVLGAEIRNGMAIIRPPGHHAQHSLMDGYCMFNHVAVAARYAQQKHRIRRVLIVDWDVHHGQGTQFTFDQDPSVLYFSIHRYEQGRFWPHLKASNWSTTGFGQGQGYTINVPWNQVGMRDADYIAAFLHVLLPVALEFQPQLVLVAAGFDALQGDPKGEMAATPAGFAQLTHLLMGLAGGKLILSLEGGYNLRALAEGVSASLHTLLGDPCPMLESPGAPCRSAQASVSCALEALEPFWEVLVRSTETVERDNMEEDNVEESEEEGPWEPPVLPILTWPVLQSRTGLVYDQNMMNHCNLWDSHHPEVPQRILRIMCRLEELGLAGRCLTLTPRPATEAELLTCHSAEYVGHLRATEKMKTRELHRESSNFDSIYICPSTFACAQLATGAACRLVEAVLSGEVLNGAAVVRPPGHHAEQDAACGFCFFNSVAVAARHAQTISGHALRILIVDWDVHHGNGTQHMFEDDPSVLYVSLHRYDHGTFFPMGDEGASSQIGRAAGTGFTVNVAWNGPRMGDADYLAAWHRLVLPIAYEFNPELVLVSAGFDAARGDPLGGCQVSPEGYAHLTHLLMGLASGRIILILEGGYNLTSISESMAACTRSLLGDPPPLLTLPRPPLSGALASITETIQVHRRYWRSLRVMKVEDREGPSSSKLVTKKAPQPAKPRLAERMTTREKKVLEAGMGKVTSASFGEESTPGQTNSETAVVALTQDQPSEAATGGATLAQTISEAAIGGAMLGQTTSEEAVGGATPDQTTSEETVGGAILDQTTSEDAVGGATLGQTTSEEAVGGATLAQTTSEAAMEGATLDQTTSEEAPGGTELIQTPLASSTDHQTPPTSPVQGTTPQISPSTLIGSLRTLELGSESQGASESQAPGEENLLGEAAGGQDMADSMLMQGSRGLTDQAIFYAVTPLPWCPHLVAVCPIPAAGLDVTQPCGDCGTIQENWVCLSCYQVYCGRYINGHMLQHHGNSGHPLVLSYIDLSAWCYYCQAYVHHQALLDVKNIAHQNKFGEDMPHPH

[6] = molecular target: T6, HDAC8 (Homo sapiens, UniProt Q9BY41); format: biochemical; conditions: HDAC isoform 8; 2 μM FAM-labeled acetylated peptide substrate, 60 min, room temperature
T6 construct: purchased BPS Bioscience
T6 sequence (Q9BY41 1-377): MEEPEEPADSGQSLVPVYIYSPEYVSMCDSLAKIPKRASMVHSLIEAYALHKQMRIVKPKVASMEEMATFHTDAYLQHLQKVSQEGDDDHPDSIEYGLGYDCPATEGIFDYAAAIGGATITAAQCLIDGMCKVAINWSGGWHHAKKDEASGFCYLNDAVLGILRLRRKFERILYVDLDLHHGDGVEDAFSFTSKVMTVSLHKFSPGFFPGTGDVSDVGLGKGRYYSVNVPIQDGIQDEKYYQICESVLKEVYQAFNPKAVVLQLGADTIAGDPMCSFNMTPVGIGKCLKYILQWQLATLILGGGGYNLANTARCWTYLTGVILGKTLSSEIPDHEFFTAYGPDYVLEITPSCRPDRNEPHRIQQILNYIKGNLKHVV

[7] = molecular target: T7, HDAC9 (Homo sapiens, UniProt Q9UKV0); format: biochemical; conditions: HDAC isoform 9; 2 μM FAM-labeled acetylated peptide substrate, 60 min, room temperature
T7 construct: purchased BPS Bioscience

[8] = molecular target: HDAC4 (Homo sapiens, UniProt P56524)
Description: The following microfluidic lab-on-a-chip assay as described herein was used to assay the compounds of the invention.
All HDACs were purchased from BPS Bioscience. All other reagents were purchased from Sigma. Caliper EZ reader II system was used to collect all the data.
In short, purified HDACs were incubated with 2 μM carboxyfluorescein (FAM)-labeled acetylated peptide substrate and test compound for 60 min at room temperature, in HDAC assay buffer that contained 50 mM HEPES (pH 7.4), 100 mM KCl, 0.01% BSA and 0.001% Tween-20. […] Substrate and product were separated electrophoretically and fluorescence intensity in the substrate and product peaks was determined and analyzed by Labchip EZ Reader. The reactions were performed in duplicate for each sample. IC50 values were automatically calculated by Origion8 using 4 Parameter Logistic Model. The percent inhibition was plotted against the compound concentration, and the IC50 value was determined from the logistic dose-response curve fitting by Origin 8.0 software.

[9] = molecular target: T8, HDAC7 (Homo sapiens, UniProt Q8WUI4); format: biochemical; conditions: HDAC isoform 7; 2 μM FAM-labeled acetylated peptide substrate, 60 min, room temperature
T8 construct: purchased BPS Bioscience
T8 sequence (Q8WUI4 1-952): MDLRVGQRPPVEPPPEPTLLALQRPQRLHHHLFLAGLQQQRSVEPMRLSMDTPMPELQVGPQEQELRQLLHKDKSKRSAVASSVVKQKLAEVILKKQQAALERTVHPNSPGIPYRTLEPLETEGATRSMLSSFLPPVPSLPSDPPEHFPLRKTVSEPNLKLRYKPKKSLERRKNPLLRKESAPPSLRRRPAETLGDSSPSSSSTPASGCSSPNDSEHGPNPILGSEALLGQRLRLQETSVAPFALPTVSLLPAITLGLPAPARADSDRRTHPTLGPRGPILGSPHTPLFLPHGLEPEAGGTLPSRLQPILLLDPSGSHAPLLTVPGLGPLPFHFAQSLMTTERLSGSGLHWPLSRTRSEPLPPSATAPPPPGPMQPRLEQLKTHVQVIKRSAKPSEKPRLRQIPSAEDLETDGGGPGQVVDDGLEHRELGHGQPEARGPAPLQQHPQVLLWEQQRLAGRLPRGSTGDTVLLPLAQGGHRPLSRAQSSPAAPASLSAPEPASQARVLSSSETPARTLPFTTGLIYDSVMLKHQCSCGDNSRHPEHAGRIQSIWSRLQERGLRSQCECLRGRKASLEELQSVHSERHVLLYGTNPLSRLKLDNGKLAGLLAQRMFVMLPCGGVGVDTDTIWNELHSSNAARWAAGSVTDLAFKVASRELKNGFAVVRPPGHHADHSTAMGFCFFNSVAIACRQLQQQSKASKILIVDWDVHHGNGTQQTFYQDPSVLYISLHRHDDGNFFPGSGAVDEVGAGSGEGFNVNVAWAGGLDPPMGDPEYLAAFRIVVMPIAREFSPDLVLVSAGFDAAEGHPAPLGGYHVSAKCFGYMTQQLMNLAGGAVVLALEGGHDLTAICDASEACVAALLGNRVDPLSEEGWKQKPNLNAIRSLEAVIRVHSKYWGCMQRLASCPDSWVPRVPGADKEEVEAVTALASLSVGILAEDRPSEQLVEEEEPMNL

T7 sequence (Q9UKV0 whole entry, canonical isoform): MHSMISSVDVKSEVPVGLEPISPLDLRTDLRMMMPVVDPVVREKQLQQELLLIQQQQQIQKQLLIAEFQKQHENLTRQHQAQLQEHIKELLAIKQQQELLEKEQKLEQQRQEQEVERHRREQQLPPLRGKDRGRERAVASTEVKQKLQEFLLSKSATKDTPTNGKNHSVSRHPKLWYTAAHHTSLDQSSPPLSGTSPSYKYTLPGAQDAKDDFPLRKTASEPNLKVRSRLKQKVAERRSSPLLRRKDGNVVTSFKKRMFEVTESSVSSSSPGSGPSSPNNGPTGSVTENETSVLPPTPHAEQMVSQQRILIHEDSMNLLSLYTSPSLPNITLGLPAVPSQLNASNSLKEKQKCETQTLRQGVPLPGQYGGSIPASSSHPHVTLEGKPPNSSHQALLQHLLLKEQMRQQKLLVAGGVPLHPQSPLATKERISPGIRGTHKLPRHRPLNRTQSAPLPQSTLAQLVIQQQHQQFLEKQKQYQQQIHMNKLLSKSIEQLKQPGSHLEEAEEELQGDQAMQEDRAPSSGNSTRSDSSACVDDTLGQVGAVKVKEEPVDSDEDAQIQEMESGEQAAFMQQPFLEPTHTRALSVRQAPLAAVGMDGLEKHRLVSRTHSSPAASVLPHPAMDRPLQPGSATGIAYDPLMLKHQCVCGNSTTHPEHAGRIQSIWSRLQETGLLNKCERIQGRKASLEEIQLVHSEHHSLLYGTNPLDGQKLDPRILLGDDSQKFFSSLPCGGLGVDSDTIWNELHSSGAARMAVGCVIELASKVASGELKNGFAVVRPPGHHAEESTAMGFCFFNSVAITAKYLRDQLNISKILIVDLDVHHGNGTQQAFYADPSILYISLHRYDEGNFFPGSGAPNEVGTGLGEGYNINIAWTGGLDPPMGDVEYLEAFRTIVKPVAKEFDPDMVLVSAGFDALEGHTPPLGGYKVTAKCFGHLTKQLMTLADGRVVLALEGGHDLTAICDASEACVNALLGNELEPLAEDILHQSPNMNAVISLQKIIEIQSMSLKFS
T4 sequence (Q9UQL6 whole entry, canonical isoform): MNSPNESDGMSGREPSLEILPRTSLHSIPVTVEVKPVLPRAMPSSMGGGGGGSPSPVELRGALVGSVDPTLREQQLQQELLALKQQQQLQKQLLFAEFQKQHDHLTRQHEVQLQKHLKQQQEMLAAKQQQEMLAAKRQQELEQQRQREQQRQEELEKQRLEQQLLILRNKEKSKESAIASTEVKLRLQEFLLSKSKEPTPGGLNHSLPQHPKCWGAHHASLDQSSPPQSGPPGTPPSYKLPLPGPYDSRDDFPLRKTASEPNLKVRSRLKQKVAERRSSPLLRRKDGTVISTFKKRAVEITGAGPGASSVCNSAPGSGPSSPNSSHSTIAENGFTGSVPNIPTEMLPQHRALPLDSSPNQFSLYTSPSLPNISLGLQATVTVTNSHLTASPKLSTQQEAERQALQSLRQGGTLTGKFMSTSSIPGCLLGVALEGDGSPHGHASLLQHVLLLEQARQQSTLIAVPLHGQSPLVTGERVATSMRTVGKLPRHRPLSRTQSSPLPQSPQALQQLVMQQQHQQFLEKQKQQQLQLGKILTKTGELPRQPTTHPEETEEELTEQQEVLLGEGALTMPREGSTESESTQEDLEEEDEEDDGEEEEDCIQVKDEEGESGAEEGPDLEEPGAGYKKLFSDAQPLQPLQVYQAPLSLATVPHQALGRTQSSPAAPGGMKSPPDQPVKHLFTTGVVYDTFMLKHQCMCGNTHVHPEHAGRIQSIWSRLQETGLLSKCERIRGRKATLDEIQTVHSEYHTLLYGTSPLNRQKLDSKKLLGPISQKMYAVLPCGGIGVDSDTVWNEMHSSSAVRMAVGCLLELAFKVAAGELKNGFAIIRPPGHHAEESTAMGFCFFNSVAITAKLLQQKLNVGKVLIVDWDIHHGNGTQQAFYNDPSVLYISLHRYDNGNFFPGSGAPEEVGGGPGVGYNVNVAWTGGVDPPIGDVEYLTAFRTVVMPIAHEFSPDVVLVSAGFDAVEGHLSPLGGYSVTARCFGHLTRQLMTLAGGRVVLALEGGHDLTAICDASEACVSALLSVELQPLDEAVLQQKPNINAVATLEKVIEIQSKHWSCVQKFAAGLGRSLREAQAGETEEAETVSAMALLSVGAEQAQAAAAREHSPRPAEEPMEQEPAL
T3 sequence (O15379 whole entry, canonical isoform): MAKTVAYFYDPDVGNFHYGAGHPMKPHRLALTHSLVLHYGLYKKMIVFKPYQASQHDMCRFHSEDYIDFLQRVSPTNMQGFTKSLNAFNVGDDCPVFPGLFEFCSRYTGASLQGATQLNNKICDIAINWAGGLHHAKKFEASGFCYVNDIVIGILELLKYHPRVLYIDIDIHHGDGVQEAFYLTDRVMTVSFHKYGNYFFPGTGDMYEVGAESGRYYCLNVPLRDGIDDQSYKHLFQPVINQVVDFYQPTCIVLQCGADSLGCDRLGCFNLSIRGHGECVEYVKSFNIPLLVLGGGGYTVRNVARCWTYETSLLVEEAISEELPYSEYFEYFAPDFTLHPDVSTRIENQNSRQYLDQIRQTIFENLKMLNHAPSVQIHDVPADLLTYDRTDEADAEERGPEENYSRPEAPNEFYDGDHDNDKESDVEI
T3 sequence (Q9Y618 395-489 partner limits assumed): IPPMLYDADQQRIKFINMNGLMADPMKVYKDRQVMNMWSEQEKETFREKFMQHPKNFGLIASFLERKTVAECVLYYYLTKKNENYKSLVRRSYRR
T2 sequence (Q92769 whole entry, canonical isoform): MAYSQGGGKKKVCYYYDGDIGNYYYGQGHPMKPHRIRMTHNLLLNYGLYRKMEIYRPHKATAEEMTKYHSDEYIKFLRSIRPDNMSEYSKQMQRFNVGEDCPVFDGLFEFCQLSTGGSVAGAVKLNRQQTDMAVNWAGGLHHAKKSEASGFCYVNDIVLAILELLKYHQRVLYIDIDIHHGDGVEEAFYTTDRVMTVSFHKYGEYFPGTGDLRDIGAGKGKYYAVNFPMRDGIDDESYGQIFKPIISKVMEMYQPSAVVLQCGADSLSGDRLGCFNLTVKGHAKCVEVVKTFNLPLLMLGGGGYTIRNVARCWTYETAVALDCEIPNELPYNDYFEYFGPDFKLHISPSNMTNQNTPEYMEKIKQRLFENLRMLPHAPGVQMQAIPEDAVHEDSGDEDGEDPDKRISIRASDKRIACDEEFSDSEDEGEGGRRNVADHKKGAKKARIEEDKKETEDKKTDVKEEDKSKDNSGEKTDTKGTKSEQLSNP
Chain of HDAC4 (P56524 whole entry, canonical isoform): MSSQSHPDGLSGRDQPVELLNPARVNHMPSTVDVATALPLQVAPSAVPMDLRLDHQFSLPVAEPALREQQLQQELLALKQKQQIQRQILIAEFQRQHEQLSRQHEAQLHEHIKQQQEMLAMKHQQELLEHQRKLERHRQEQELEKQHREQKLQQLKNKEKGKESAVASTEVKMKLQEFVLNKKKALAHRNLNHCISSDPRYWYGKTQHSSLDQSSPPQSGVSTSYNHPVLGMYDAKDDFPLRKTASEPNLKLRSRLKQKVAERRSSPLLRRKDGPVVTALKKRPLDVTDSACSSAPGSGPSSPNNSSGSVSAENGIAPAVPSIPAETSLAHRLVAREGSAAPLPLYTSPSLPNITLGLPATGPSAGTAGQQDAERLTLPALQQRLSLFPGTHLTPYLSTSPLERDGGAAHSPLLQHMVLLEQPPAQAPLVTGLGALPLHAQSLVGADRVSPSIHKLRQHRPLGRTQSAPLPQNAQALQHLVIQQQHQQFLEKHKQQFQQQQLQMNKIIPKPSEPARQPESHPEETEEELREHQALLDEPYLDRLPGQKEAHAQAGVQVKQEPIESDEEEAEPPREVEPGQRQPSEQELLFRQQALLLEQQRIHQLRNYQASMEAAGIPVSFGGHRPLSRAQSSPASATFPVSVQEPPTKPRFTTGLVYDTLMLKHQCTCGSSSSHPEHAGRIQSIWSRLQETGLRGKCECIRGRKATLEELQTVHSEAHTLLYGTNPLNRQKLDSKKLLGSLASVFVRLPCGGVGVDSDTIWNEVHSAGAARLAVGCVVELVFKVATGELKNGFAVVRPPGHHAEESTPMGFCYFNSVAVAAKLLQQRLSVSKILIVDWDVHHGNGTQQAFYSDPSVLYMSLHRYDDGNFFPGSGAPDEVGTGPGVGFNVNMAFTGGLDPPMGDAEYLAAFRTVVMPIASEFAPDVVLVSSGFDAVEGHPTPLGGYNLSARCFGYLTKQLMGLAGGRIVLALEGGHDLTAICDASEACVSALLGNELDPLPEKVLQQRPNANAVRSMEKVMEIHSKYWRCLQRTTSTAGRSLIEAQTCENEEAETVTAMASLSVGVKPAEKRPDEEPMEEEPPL
T1 sequence (Q13547 whole entry, canonical isoform): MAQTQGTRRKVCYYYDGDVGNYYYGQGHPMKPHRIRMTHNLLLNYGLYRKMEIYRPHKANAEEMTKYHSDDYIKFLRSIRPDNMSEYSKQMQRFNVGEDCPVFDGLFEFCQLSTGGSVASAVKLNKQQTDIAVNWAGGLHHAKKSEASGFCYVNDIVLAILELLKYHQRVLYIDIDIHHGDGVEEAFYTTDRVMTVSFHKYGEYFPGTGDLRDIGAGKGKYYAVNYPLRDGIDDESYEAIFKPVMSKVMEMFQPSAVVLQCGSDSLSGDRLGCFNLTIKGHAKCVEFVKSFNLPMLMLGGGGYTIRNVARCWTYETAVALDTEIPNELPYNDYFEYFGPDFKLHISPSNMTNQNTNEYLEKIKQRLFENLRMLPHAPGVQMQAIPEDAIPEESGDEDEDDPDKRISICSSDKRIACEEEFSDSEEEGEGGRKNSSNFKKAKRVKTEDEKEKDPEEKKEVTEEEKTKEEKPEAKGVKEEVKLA

Work on `O=C(NO)C1=CCCC1` [Compound 21A, N-Hydroxycyclopent-1-Enecarboxamide] yielded an IC50 [1] of 0.727 µM, an IC50 [2] of 3.44 µM and an IC50 [3] of 0.734 µM. It also gave an IC50 [4] of 21.1 µM, an IC50 [5] of 0.024 µM and an IC50 [6] of 1.85 µM. For the same compound, the IC50 [7] was over 33 µM and the IC50 [8] was 29.7 µM.

In the case of `O=C(NO)C1=CCOCC1` [Compound 20A, N-Hydroxy-3,6-Dihydro-2H-Pyran-4-Carboxamide], the IC50 [1] is reported as 1.08 µM, the IC50 [2] is reported as 1.9 µM and the IC50 [3] is reported as 1.4 µM. The IC50 [5] was 0.016 µM, the IC50 [9] was 26.8 µM and the IC50 [6] was 1.38 µM. It also gave an IC50 [7] of over 33 µM and an IC50 [8] of over 33 µM.

Compound `O=C(NO)C1=C[C@@H](O)[C@@H](O)[C@H](O)C1` [Compound 22A, (3R,4S,5R)-N,3,4,5-Tetrahydroxycyclohex-1-Enecarboxamide] has an IC50 [1] of over 33 µM, an IC50 [2] of over 33 µM and an IC50 [3] of over 33 µM. For the same compound, the IC50 [4] was over 33 µM, the IC50 [5] was over 33 µM and the IC50 [9] was over 33 µM. For the same compound, the IC50 [6] was 9.14 µM, the IC50 [7] was over 33 µM and the IC50 [8] was over 33 µM.

In the case of `COc1ccc(CNC2C=C(C(=O)NO)CCC2)cc1` (stereo not shown) [Compound 7A, N-Hydroxy-3-((4-Methoxybenzyl)Amino)Cyclohex-1-Enecarboxamide], the IC50 [1] is reported as over 33 µM, the IC50 [2] is reported as over 33 µM and the IC50 [3] is reported as over 33 µM. The IC50 [4] was over 33 µM, the IC50 [5] was 2.68 µM and the IC50 [9] was over 33 µM. The IC50 [6] was 2.16 µM, the IC50 [7] was over 33 µM and the IC50 [8] was over 33 µM.

`O=C(NO)C1=CC(Sc2ccccc2)CCC1` (stereo not shown) [Compound 10A, N-Hydroxy-3-(Phenylthio)Cyclohex-1-Enecarboxamide] showed an IC50 [1] of 2.1 µM, an IC50 [2] of 1.7 µM and an IC50 [3] of 3.22 µM. For the same compound, the IC50 [4] was 10.9 µM, the IC50 [5] was 0.106 µM and the IC50 [9] was 6.91 µM. For the same compound, the IC50 [6] was 0.055 µM, the IC50 [7] was 16 µM and the IC50 [8] was 7.93 µM.

For `CC1=C(C(=O)NO)Cc2ccccc21` [Compound 29A, N-Hydroxy-3-Methyl-1H-Indene-2-Carboxamide], the IC50 [1] was 0.275 µM, the IC50 [2] was 0.584 µM and the IC50 [3] was 0.713 µM. For the same compound, the IC50 [4] was 23.6 µM, the IC50 [5] was 0.049 µM and the IC50 [9] was 17.9 µM. It also gave an IC50 [6] of 1.13 µM, an IC50 [7] of 11.2 µM and an IC50 [8] of 16 µM.

For `O=C(NO)C1=CCCCC1` [Compound 19A, N-Hydroxycyclohex-1-Enecarboxamide], the IC50 [1] was 0.423 µM, the IC50 [2] was 1.4 µM and the IC50 [3] was 0.493 µM. The IC50 [4] was 15.2 µM, the IC50 [5] was 0.011 µM and the IC50 [9] was 2.32 µM. It also gave an IC50 [6] of 0.523 µM, an IC50 [7] of 11.7 µM and an IC50 [8] of 10.1 µM.

For `CN1CCC=C(C(=O)NO)C1` [Compound 30A, N-Hydroxy-1-Methyl-1,2,5,6-Tetrahydropyridine-3-Carboxamide], the IC50 [1] was over 33 µM, the IC50 [2] was over 33 µM and the IC50 [3] was over 33 µM. For the same compound, the IC50 [4] was over 33 µM, the IC50 [5] was over 33 µM and the IC50 [9] was over 33 µM. The IC50 [6] was 2.63 µM, the IC50 [7] was over 33 µM and the IC50 [8] was over 33 µM.

`COc1ccc(C(=O)N2CCC=C(C(=O)NO)C2)cc1` [Compound 12A] showed an IC50 [1] of over 33 µM, an IC50 [2] of over 33 µM and an IC50 [3] of over 33 µM. It also gave an IC50 [4] of over 33 µM, an IC50 [5] of 6.2 µM and an IC50 [9] of over 33 µM. It also gave an IC50 [6] of 23.2 µM, an IC50 [7] of over 33 µM and an IC50 [8] of over 33 µM.

`Cc1ccc(S(=O)(=O)N2CC=C(C(=O)NO)CC2)cc1` [Compound 31A, N-Hydroxy-1-Tosyl-1,2,3,6-Tetrahydropyridine-4-Carboxamide] was tested, and the IC50 [1] was 0.084 µM, the IC50 [2] was 0.375 µM and the IC50 [3] was 0.099 µM. The IC50 [4] was 7.41 µM, the IC50 [5] was 0.014 µM and the IC50 [9] was 11.6 µM. For the same compound, the IC50 [6] was 0.494 µM, the IC50 [7] was 13 µM and the IC50 [8] was 14.8 µM.

In the case of `O=C(NO)C1=Cc2ccccc2CC1` [Compound 32A, N-Hydroxy-3,4-Dihydronaphthalene-2-Carboxamide], the IC50 [1] is reported as 1.86 µM, the IC50 [2] is reported as 2.6 µM and the IC50 [3] is reported as 2.32 µM. It also gave an IC50 [4] of 14 µM, an IC50 [5] of 0.014 µM and an IC50 [9] of 2.46 µM. For the same compound, the IC50 [6] was 0.626 µM, the IC50 [7] was 4.08 µM and the IC50 [8] was 4.65 µM.
